Experimental data published in PMC8037182, “Solvothermal Synthesis of Multiple Dihydropyrimidinones at a Time as Inhibitors of Eg5” (Molecules, 2021).
pIC50: −log10 of the molar value.

What was measured:
Hela cell line = assay: Cytotoxicity MTS assay, Hela cell line; assay type: cell-based; details: for OD490 value, Mean / OD490 value, Well 1 / OD490 value, Well 2 / OD490 value, Well 3: Hela cell line, MTS;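 as to OD490 value, Mean: blank control wells received 0.025% DMSO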;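 as to OD490 value, Well 1: blank control wells received 0.025% DMSO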;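 as to OD490 value, Well 2: blank control wells received 0.025% DMSO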;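 as to OD490 value, Well 3: blank control wells received 0.025% DMSO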
How it was run: (§1)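 IC50 reflects non-linear regression of percent cell viability on compound concentration, tested from 0.5 to 100 µM final during a 24 h exposure. Viability was read by MTS at 490 nm; monastrol served as positive control and 0.025% DMSO as blank.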

T24 cell line = assay: Cytotoxicity MTS assay, T24 cell line; assay type: cell-based; details: for OD490 Mean / OD490 Well 1 / OD490 Well 2 / OD490 Well 3: T24 cell line, first assay;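 as to OD490 Mean: blank control wells received 0.025% DMSO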;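 as to OD490 Well 1: blank control wells received 0.025% DMSO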;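 as to OD490 Well 2: blank control wells received 0.025% DMSO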;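 as to OD490 Well 3: blank control wells received 0.025% DMSO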
How it was run: as §1

## CCOC(=O)c1c(C2NC(=O)NC(C)=C2C(=O)Nc2ccccc2)[nH]c(C(=O)OC)c1C (centres unmarked) [D10]
Hela cell line; 0.5μM, first assay
  OD490 value, Mean: 2.4433
  OD490 value, Well 1: 2.2781
  OD490 value, Well 2: 2.4004
  OD490 value, Well 3: 2.6514
Hela cell line; 0.5μM, second assay
  OD490 value, Mean: 2.6180
  OD490 value, Well 1: 2.6587
  OD490 value, Well 2: 2.4789
  OD490 value, Well 3: 2.7165
Hela cell line; 0.5μM, third assay
  OD490 value, Mean: 2.7318
  OD490 value, Well 1: 2.6365
  OD490 value, Well 2: 2.6647
  OD490 value, Well 3: 2.8942
Hela cell line; 1μM, first assay
  OD490 value, Mean: 2.5456
  OD490 value, Well 1: 2.4058
  OD490 value, Well 2: 2.5965
  OD490 value, Well 3: 2.6345
Hela cell line; 1μM, second assay
  OD490 value, Mean: 2.6802
  OD490 value, Well 1: 2.6241
  OD490 value, Well 2: 2.8523
  OD490 value, Well 3: 2.5641
Hela cell line; 1μM, third assay
  OD490 value, Mean: 2.6076
  OD490 value, Well 1: 2.6360
  OD490 value, Well 2: 2.5412
  OD490 value, Well 3: 2.6456
Hela cell line; 10μM, first assay
  OD490 value, Mean: 2.4164
  OD490 value, Well 1: 2.2701
  OD490 value, Well 2: 2.4384
  OD490 value, Well 3: 2.5408
Hela cell line; 10μM, second assay
  OD490 value, Mean: 2.3656
  OD490 value, Well 1: 2.3071
  OD490 value, Well 2: 2.3385
  OD490 value, Well 3: 2.4512
Hela cell line; 10μM, third assay
  OD490 value, Mean: 2.4636
  OD490 value, Well 1: 2.3685
  OD490 value, Well 2: 2.4635
  OD490 value, Well 3: 2.5587
Hela cell line; 25μM, first assay
  OD490 value, Mean: 2.2246
  OD490 value, Well 1: 1.9325
  OD490 value, Well 2: 2.3409
  OD490 value, Well 3: 2.4004
Hela cell line; 25μM, second assay
  OD490 value, Mean: 2.1531
  OD490 value, Well 1: 2.0147
  OD490 value, Well 2: 2.2032
  OD490 value, Well 3: 2.2414
Hela cell line; 25μM, third assay
  OD490 value, Mean: 2.1839
  OD490 value, Well 1: 2.1010
  OD490 value, Well 2: 2.1141
  OD490 value, Well 3: 2.3365
Hela cell line; 50μM, first assay
  OD490 value, Mean: 1.8479
  OD490 value, Well 1: 1.6416
  OD490 value, Well 2: 1.7737
  OD490 value, Well 3: 2.1285
Hela cell line; 50μM, second assay
  OD490 value, Mean: 1.7649
  OD490 value, Well 1: 1.7425
  OD490 value, Well 2: 1.7321
  OD490 value, Well 3: 1.8201
Hela cell line; 50μM, third assay
  OD490 value, Mean: 1.8099
  OD490 value, Well 1: 1.7845
  OD490 value, Well 2: 1.8032
  OD490 value, Well 3: 1.8420
Hela cell line; 100μM, first assay
  OD490 value, Mean: 1.6845
  OD490 value, Well 1: 1.6759
  OD490 value, Well 2: 1.7430
  OD490 value, Well 3: 1.6346
Hela cell line; 100μM, second assay
  OD490 value, Mean: 1.6082
  OD490 value, Well 1: 1.6324
  OD490 value, Well 2: 1.5024
  OD490 value, Well 3: 1.6898
Hela cell line; 100μM, third assay
  OD490 value, Mean: 1.7036
  OD490 value, Well 1: 1.6578
  OD490 value, Well 2: 1.6988
  OD490 value, Well 3: 1.7542
Hela cell line; MTS assay, 24 h exposure
  pIC50: 3.97
T24 cell line; MTS assay, 24 h exposure
  pIC50: < 3.82
T24 cell line; 0.5μM
  OD490 Mean: 1.3759
  OD490 Well 1: 1.3871
  OD490 Well 2: 1.3651
  OD490 Well 3: 1.3756
T24 cell line; 1μM
  OD490 Mean: 1.3764
  OD490 Well 1: 1.2835
  OD490 Well 2: 1.4515
  OD490 Well 3: 1.3943
T24 cell line; 10μM
  OD490 Mean: 1.4610
  OD490 Well 1: 1.3272
  OD490 Well 2: 1.6117
  OD490 Well 3: 1.4442
T24 cell line; 25μM
  OD490 Mean: 1.4209
  OD490 Well 1: 1.3594
  OD490 Well 2: 1.6346
  OD490 Well 3: 1.2686
T24 cell line; 50μM
  OD490 Mean: 1.2169
  OD490 Well 1: 1.1849
  OD490 Well 2: 1.3216
  OD490 Well 3: 1.1441
T24 cell line; 100μM
  OD490 Mean: 1.1356
  OD490 Well 1: 1.2013
  OD490 Well 2: 1.0672
  OD490 Well 3: 1.1383
